# Tests used:
# Assay in all cases: relative viability (nuclei count vs DMSO), 5 days (fraction); higher = more cells survive
# [1] = compound: CC(O)(CS(=O)(=O)c1ccc(F)cc1)C(=O)Nc1ccc(C#N)c(C(F)(F)F)c1 [Bicalutamide] + Nc1ncn([C@H]2C[C@H](O)[C@@H](CO)O2)c(=O)n1 [Decitabine] (partner 2 µM)
# Method in brief: (§1)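 Lung cancer cell lines in 1536-well plates were dosed by pin tool the day after seeding, either with one drug alone or with a fixed anchor-drug dose plus five library-drug doses (not always all listed) in √10 steps. After 5 days, cells were fixed and their nuclei stained in one step (final 0.05% Triton X-100, 1% formaldehyde, 1 ug/ml Hoechst), then counted on 4× images. Relative viability is the nuclei count in treated wells divided by that in vehicle wells. Values are medians of duplicate plates.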
# [2] = compound: C(C(=O)C(=O)O)Br [Bromopyruvate] + C[C@]1(O)C[C@@H](c2nc(-c3ccc4ccc(-c5ccccc5)nc4c3)c3c(N)nccn32)C1 [Linsitinib] (partner 1 µM)
# Method in brief: as §1
# [3] = compound: CC(O)(CS(=O)(=O)c1ccc(F)cc1)C(=O)Nc1ccc(C#N)c(C(F)(F)F)c1 [Bicalutamide] + CC(=O)c1c(C)c2cnc(Nc3ccc(N4CCNCC4)cn3)nc2n(C2CCCC2)c1=O [Palbociclib] (partner 0.5 µM)
# Method in brief: as §1
# [4] = compound: C(C(=O)C(=O)O)Br [Bromopyruvate] + C[C@@H](Oc1cc(-c2cnn(C3CCNCC3)c2)cnc1N)c1c(Cl)ccc(F)c1Cl [Crizotinib] (partner 1 µM)
# Method in brief: as §1
Cell Line,relative viability ([1]; first compound 0.08 µM),relative viability ([1]; first compound 0.253 µM),relative viability ([1]; first compound 0.8 µM),relative viability ([1]; first compound 2.53 µM),relative viability ([2]; first compound 1 µM),relative viability ([2]; first compound 3.162 µM),relative viability ([2]; first compound 10 µM),relative viability ([2]; first compound 31.62 µM),relative viability ([2]; first compound 100 µM),relative viability ([3]; first compound 0.08 µM),relative viability ([3]; first compound 0.253 µM),relative viability ([3]; first compound 0.8 µM),relative viability ([3]; first compound 2.53 µM),relative viability ([4]; first compound 1 µM),relative viability ([4]; first compound 3.162 µM),relative viability ([4]; first compound 10 µM),relative viability ([4]; first compound 31.62 µM),relative viability ([4]; first compound 100 µM)
201T,0.87,0.847,0.857,0.889,1.05,1.07,1.06,1.02,1.11,0.379,0.351,0.386,0.365,1.06,1.03,1.02,1.02,1.08
A549,0.351,0.271,0.259,0.248,,0.607,0.754,0.687,0.696,,,,,0.731,0.806,0.858,0.754,0.736
A-427,0.608,0.533,0.666,0.562,1.05,1.05,1.03,1.15,1.14,0.547,0.54,0.56,0.526,0.878,0.873,0.82,0.741,0.793
ABC-1,1.25,0.929,1.23,0.847,0.767,1.05,,0.693,0.753,0.698,0.474,0.808,0.601,1.47,1.13,,1.05,0.636
BEN,0.736,0.658,0.838,0.7,0.97,0.869,0.932,0.929,0.936,0.442,0.438,0.526,0.496,0.875,0.935,0.99,0.753,1.01
CAL-12T,,,,,0.789,0.732,0.899,0.828,0.845,0.505,0.352,0.533,0.329,0.663,0.663,0.743,0.48,0.505
COR-L23,0.476,0.389,0.455,0.367,0.906,0.843,1,0.889,0.451,0.359,0.293,0.353,0.269,0.564,0.597,0.717,0.713,0.336
COR-L 105,0.765,0.6,0.698,0.63,0.943,0.898,0.838,0.736,0.702,0.405,0.407,0.379,0.379,0.716,1.09,0.739,0.583,0.439
Calu-6,,,,,0.889,1.04,1.09,0.926,0.958,,,,,0.659,0.843,0.938,0.79,0.546
ChaGo-K-1,0.524,0.46,0.561,0.551,,,,,,0.933,0.849,1.04,0.961,1.09,1.14,1.17,1.1,1.17
EBC-1,,,,,0.78,0.963,0.994,0.905,0.93,,,,,0.235,0.218,0.187,0.187,0.196
EKVX,0.336,0.37,0.32,0.333,0.905,1.02,1.11,0.965,1.13,0.381,0.392,0.445,0.374,0.917,1.1,1.08,1.03,0.996
EMC-BAC-2,0.976,0.875,0.948,0.892,0.716,0.825,0.9,0.838,0.887,0.532,0.502,0.543,0.437,0.611,0.723,0.798,0.788,0.756
EPLC-272H,0.384,0.373,0.382,0.342,1.06,1.14,1.13,1.19,1.3,0.328,0.313,0.341,0.295,0.773,0.996,0.999,0.92,0.911
H3255,0.601,0.571,0.668,0.525,0.945,1.02,0.997,0.967,1.1,0.35,0.324,0.308,0.302,0.929,0.987,0.915,0.803,0.973
HARA,0.632,,0.536,0.574,0.978,1.01,1.01,0.932,1.02,0.246,0.262,0.329,0.242,1.05,1.03,0.983,0.991,1.06
HCC-15,0.63,0.595,0.74,0.584,0.84,0.867,0.924,0.824,0.899,0.727,0.501,0.79,0.767,0.823,0.898,0.793,0.817,0.905
HCC-44,0.967,0.911,0.942,0.959,0.612,0.662,0.729,0.753,0.713,0.953,1.03,1.04,0.944,0.787,0.724,0.735,0.862,0.884
HCC-78,0.726,0.589,0.819,0.71,0.457,0.603,0.575,0.629,0.547,0.464,0.513,0.499,0.476,0.368,0.339,0.37,0.349,0.347
HCC-366,0.369,0.284,0.351,0.327,0.615,0.848,0.765,0.769,0.54,0.368,0.383,0.583,0.359,0.569,0.54,0.947,0.548,0.474
HCC-827,0.337,0.252,0.384,0.351,1.01,0.932,0.926,0.962,0.981,0.499,0.389,0.496,0.476,0.939,0.919,0.931,0.999,0.964
HOP-62,0.25,0.2,0.241,0.221,1.04,1.02,,0.368,0.24,0.47,0.464,0.566,0.502,0.923,0.876,,0.952,0.65

Cell Line,relative viability ([1]; first compound 0.08 µM),relative viability ([1]; first compound 0.253 µM),relative viability ([1]; first compound 0.8 µM),relative viability ([1]; first compound 2.53 µM),relative viability ([2]; first compound 1 µM),relative viability ([2]; first compound 3.162 µM),relative viability ([2]; first compound 10 µM),relative viability ([2]; first compound 31.62 µM),relative viability ([2]; first compound 100 µM),relative viability ([3]; first compound 0.08 µM),relative viability ([3]; first compound 0.253 µM),relative viability ([3]; first compound 0.8 µM),relative viability ([3]; first compound 2.53 µM),relative viability ([4]; first compound 1 µM),relative viability ([4]; first compound 3.162 µM),relative viability ([4]; first compound 10 µM),relative viability ([4]; first compound 31.62 µM),relative viability ([4]; first compound 100 µM)
IA-LM,,,,,0.534,0.576,0.675,0.674,0.674,,,,,0.642,0.796,0.634,0.789,0.522
LC-2-ad,0.808,0.831,0.857,0.909,0.825,0.93,0.869,0.842,0.909,0.475,0.473,0.464,0.516,0.218,0.47,0.458,0.52,0.469
LCLC-97TM1,0.222,0.202,0.305,0.234,,,0.22,0.198,0.162,0.227,0.216,0.3,0.225,,,0.377,0.427,0.186
LCLC-103H,0.714,0.717,0.717,0.756,1.28,1.07,1,1.08,1.14,0.467,0.478,0.53,0.51,1.02,1.06,1.05,1.14,1.2
LK-2,0.345,0.238,0.329,0.305,0.474,0.674,0.541,0.509,0.524,0.665,0.511,0.783,0.63,0.292,0.238,0.207,0.223,0.257
LOU-NH91,0.769,0.817,0.83,0.836,0.89,0.964,0.944,1.04,1.1,0.449,0.548,0.553,0.541,0.769,0.708,0.712,0.76,0.724
LU99A,0.96,0.896,1.02,0.719,0.567,0.563,0.552,0.614,0.511,0.386,0.36,0.531,0.393,0.488,0.689,0.591,0.554,0.672
LXF-289,0.346,0.398,0.403,0.403,0.966,0.969,0.981,0.951,1.01,0.596,0.543,0.614,0.592,0.841,0.807,0.786,0.791,0.833
NCI-H23,0.312,0.36,0.311,0.297,0.484,0.584,0.661,0.54,0.51,0.529,0.503,0.515,0.471,0.386,0.514,0.514,0.494,0.423
NCI-H522,0.585,0.575,0.71,0.632,,,,,,0.949,1.11,1.11,0.894,,,,,
NCI-H596,0.975,1.02,1.09,0.983,0.998,0.991,1.18,1.03,1.19,,,,,0.98,1,1.07,0.952,1.17
NCI-H1299,,,,,0.994,1.01,1.04,1.02,0.968,,,,,0.933,0.994,0.995,0.945,0.957
NCI-H1395,0.754,0.672,0.787,0.806,1.36,1.29,1.09,1.2,1.17,0.645,0.624,0.639,0.568,,,,,
NCI-H1563,,,,,1.19,1.42,1.16,1.23,1.07,,,,,0.883,0.979,0.956,0.828,0.998
NCI-H1648,,,0.475,0.458,,,,,,,,0.317,0.254,,,,,
NCI-H1650,0.452,0.369,0.45,0.436,,,,,,0.435,0.314,0.464,0.355,0.898,1.24,0.942,0.922,0.56
NCI-H1703,,,,,0.602,1.08,0.709,0.678,0.655,,,,,0.736,0.946,0.589,0.862,0.75
NCI-H1793,0.524,,0.574,0.423,0.706,0.8,1.16,0.844,1.06,0.265,,0.423,0.382,,,,,
NCI-H2170,0.442,0.441,0.515,0.496,,,,,,0.378,0.34,0.438,0.397,1.33,1.24,1.2,1.29,1.15
NCI-H2228,,,,,0.81,0.837,0.693,0.535,0.505,0.797,0.775,0.745,0.779,0.44,0.641,0.492,0.404,0.617
NCI-H2342,0.742,0.717,0.756,0.843,,,,,,0.526,0.519,0.726,0.523,,,,,
SW 900,0.416,0.413,0.5,0.476,,,,,,0.602,0.596,0.529,0.511,,,,,
